Reference: the NIST ThermoML archive (doi:10.1016/j.fluid.2005.05.023)

Assay: xn = mol fraction of the nth substance listed
Conditions: Liquid, Vibrating tube method

Cc1ccccc1 [toluene] + CCO
mass density [kg/m3]
Conditions | 100 kPa | 5000 kPa | 10000 kPa | 15000 kPa | 20000 kPa | 25000 kPa | 30000 kPa | 35000 kPa | 40000 kPa | 45000 kPa
313.15 K, x2 = 0.625 | – | – | – | – | – | – | – | – | – | 846
313.15 K, x2 = 0.75 | – | – | – | – | – | – | – | – | – | 835.8
313.15 K, x2 = 0.875 | – | – | – | – | – | – | – | – | – | 823.2
323.15 K, x2 = 0 | 838.6 | 843 | 847.2 | 851.3 | 855.2 | 858.9 | 862.5 | 866 | 869.4 | 872.6
323.15 K, x2 = 0.125 | 832.1 | 836.5 | 840.8 | 845 | 848.9 | 852.7 | 856.3 | 859.9 | 863.3 | 866.5
323.15 K, x2 = 0.25 | 825.8 | 830.3 | 834.7 | 838.9 | 842.9 | 846.7 | 850.4 | 853.9 | 857.3 | 860.6
323.15 K, x2 = 0.375 | 819.1 | 823.6 | 828 | 832.3 | 836.3 | 840.2 | 843.8 | 847.4 | 850.9 | 854.2
323.15 K, x2 = 0.5 | 811.3 | 815.9 | 820.4 | 824.7 | 828.8 | 832.6 | 836.4 | 840 | 843.4 | 846.7
323.15 K, x2 = 0.625 | 802.5 | 807.1 | 811.6 | 815.9 | 820 | 824 | 827.7 | 831.3 | 834.8 | 838.1
323.15 K, x2 = 0.75 | 792.1 | 796.8 | 801.3 | 805.7 | 809.8 | 813.8 | 817.5 | 821.2 | 824.7 | 828.1
323.15 K, x2 = 0.875 | 779.3 | 784.1 | 788.7 | 793.1 | 797.3 | 801.3 | 805.1 | 808.8 | 812.3 | 815.7
333.15 K, x2 = 0 | 828.8 | 833.5 | 838 | 842.3 | 846.4 | 850.4 | 854.2 | 857.9 | 861.4 | 864.8
333.15 K, x2 = 0.125 | 822 | 826.7 | 831.4 | 835.8 | 839.9 | 843.9 | 847.8 | 851.5 | 855.1 | 858.5
333.15 K, x2 = 0.25 | 815.6 | 820.4 | 825.1 | 829.5 | 833.7 | 837.8 | 841.7 | 845.4 | 849 | 852.5
333.15 K, x2 = 0.375 | 808.8 | 813.6 | 818.4 | 822.9 | 827.1 | 831.2 | 835.1 | 838.9 | 842.5 | 846
333.15 K, x2 = 0.5 | 801.2 | 806.1 | 810.8 | 815.4 | 819.7 | 823.8 | 827.7 | 831.5 | 835.1 | 838.6
333.15 K, x2 = 0.625 | 792.3 | 797.2 | 802.1 | 806.7 | 811 | 815.2 | 819.1 | 822.9 | 826.6 | 830.1
333.15 K, x2 = 0.75 | 782 | 787 | 791.9 | 796.5 | 800.9 | 805.1 | 809.1 | 812.9 | 816.6 | 820.1
333.15 K, x2 = 0.875 | 769.5 | 774.6 | 779.5 | 784.2 | 788.7 | 792.9 | 796.9 | 800.7 | 804.4 | 808
343.15 K, x2 = 0 | 819.2 | 824.1 | 829 | 833.5 | 837.9 | 842.1 | 846 | 849.9 | 853.5 | 857
343.15 K, x2 = 0.125 | 811.9 | 817 | 821.9 | 826.6 | 831.1 | 835.3 | 839.3 | 843.2 | 846.9 | 850.5
343.15 K, x2 = 0.25 | 805.3 | 810.5 | 815.5 | 820.3 | 824.8 | 829 | 833.1 | 837 | 840.8 | 844.4
343.15 K, x2 = 0.375 | 798.5 | 803.7 | 808.8 | 813.6 | 818.1 | 822.4 | 826.5 | 830.5 | 834.2 | 837.9
343.15 K, x2 = 0.5 | 790.7 | 796 | 801.1 | 806 | 810.6 | 814.9 | 819 | 823 | 826.8 | 830.5
343.15 K, x2 = 0.625 | 781.9 | 787.3 | 792.5 | 797.4 | 802 | 806.3 | 810.5 | 814.5 | 818.3 | 822
343.15 K, x2 = 0.75 | 771.8 | 777.2 | 782.5 | 787.4 | 792 | 796.4 | 800.6 | 804.6 | 808.5 | 812.2
343.15 K, x2 = 0.875 | 759.6 | 765 | 770.3 | 775.3 | 780 | 784.4 | 788.6 | 792.7 | 796.5 | 800.2
353.15 K, x2 = 0 | 809.4 | 814.7 | 819.9 | 824.7 | 829.3 | 833.7 | 837.9 | 841.9 | 845.7 | 849.4
353.15 K, x2 = 0.125 | 801.7 | 807.2 | 812.5 | 817.4 | 822.2 | 826.7 | 830.9 | 835 | 838.9 | 842.7
353.15 K, x2 = 0.25 | – | 800.4 | 805.8 | 810.9 | 815.6 | 820.2 | 824.5 | 828.6 | 832.6 | 836.4
353.15 K, x2 = 0.375 | – | 793.4 | 798.9 | 804 | 808.8 | 813.4 | 817.8 | 821.9 | 825.9 | 829.7
353.15 K, x2 = 0.5 | – | 785.7 | 791.3 | 796.4 | 801.3 | 805.9 | 810.3 | 814.5 | 818.5 | 822.3
353.15 K, x2 = 0.625 | – | 777 | 782.6 | 787.9 | 792.8 | 797.4 | 801.8 | 806 | 810 | 813.9
353.15 K, x2 = 0.75 | – | 767.1 | 772.7 | 778 | 782.9 | 787.6 | 792 | 796.3 | 800.3 | 804.2
353.15 K, x2 = 0.875 | – | 755.1 | 760.8 | 766.1 | 771.1 | 775.8 | 780.3 | 784.5 | 788.6 | 792.4
